The target in assay [1] is NL20 human bronchial epithelial cells expressing human Z-AAT (Homo sapiens (Human), UniProt P01009, E366K). In words: AAT Function Assay (MSD Assay NL20-SI Cell Line). The assay is classed as cell-based. As to conditions: functionally active AAT (AAT-hNE complex, MSD) in supernatant of NL20 cells expressing human Z-AAT; read-out: NL20 Functional EC50. In short, it runs like this:
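NL20 bronchial epithelial cells expressing Z-AAT, induced with 0.1 μM doxycycline, were treated with compound overnight. Functional AAT in supernatant was measured by complex formation with excess human neutrophil elastase, captured on anti-AAT plates, detected with Sulfo-tagged anti-elastase on MSD, and quantified against M-AAT standards (0.156–320 ng/mL).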

Assay [2] has as its target purified Z-AAT protein from human plasma (Homo sapiens (Human), UniProt P01009, E366K). In words: Biochemical Assay (Z-AAT Elastase Activity Assay). As to conditions: purified Z-AAT pre-incubated with compound 1 hour, then human neutrophil elastase and fluorescent substrate. The method in brief:
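Purified plasma Z-AAT (20 nM) preincubated with compounds 1 h at room temperature, then 3 nM human neutrophil elastase added in PBS + 0.01% BRIJ35 for 30 min to form suicide complex. Residual elastase activity read immediately by fluorescence after adding 300 μM MeOSuc-AAPV-AMC substrate solution.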

Each structure is given as a SMILES string.

NL20 human bronchial epithelial cells expressing human Z-AAT, sequence (P01009 25-418 E366K limits assumed): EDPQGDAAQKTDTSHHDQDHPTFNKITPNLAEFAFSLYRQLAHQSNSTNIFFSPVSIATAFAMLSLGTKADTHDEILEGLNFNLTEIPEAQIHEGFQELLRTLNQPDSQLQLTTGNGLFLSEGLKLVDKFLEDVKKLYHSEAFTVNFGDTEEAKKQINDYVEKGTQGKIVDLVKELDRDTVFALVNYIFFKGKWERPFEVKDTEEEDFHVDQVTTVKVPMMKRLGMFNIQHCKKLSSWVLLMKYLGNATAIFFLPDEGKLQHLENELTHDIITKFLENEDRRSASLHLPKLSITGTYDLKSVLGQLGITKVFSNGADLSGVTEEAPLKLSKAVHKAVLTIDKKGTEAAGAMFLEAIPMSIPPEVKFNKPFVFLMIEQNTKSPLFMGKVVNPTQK
purified Z-AAT protein from human plasma, sequence (P01009 25-418 E366K limits assumed): as above

In general, EC50 refers to the concentration at which the effect is half-maximal. In general, IC50 refers to the midpoint of a concentration-inhibition curve. `Cc1cc(-n2c(C(C)C)c(C3CCOC(C(=O)O)C3)c3cc(O)ccc32)ccc1F` (centres unmarked) [Compound 65]: in assay [1], the EC50 was greater than 2000 nM. In assay [2], the IC50 is greater than 30000 nM.
In the same order, the values of `CO[C@]1(C(=O)O)C[C@H](c2c(C(C)C)n(-c3ccc(F)c(C)c3)c3ccc(O)cc32)C1` [Compound 66] are 500 to 2000 nM and greater than 30000 nM.
For `CO[C@]1(C(=O)O)C[C@@H](c2c(C(C)C)n(-c3ccc(F)c(C)c3)c3ccc(O)cc32)C1` [Compound 67], the EC50 in assay [1] was greater than 2000 nM. Further, in assay [2], the IC50 was greater than 30000 nM.
Consider `Cc1cc(-n2c(C(C)C)c([C@H]3C[C@H](C(=O)O)C3)c3cc(O)c(F)cc32)ccc1F` [Compound 68], for which, in assay [1], the EC50 was 500 to 2000 nM. Further, the IC50 in assay [2] was greater than 5000 nM.
For the molecule `Cc1cc(-n2c(C(C)C)c([C@H]3C[C@@H](C(=O)O)C3)c3cc(O)c(F)cc32)ccc1F` [Compound 69], in assay [1], the EC50 is greater than 2000 nM. Also, the IC50 in assay [2] is greater than 5000 nM.
In the same order, the values of `CC(C)c1c(CCC(C)(C)C(=O)O)c2cc(O)ccc2n1-c1ccc(F)cc1` [Compound 70] are 500 to 2000 nM and greater than 30000 nM.
Taken in the same sequence, the figures for `CC(C)c1c(CC2(C(=O)O)CC2)c2cc(O)ccc2n1-c1ccc(F)cc1` [Compound 71] were 500 to 2000 nM and greater than 5000 nM.
As to `COCC(C)(C)c1c(C2CC(C(=O)O)C2)c2cc(O)ccc2n1-c1ccc(F)c(C)c1` (centres unmarked) [Compound 72], in assay [1], the EC50 was greater than 2000 nM. For the same molecule, in assay [2], the IC50 was greater than 30000 nM.
In the same order, the values of `COCC(C)(C)c1c([C@H]2C[C@H](C(=O)O)C2)c2cc(O)ccc2n1-c1ccc(F)c(C)c1` [Compound 73] are greater than 2000 nM and greater than 30000 nM.
As to `CC(C)c1c([C@H]2C[C@](C)(C(=O)O)C2)c2cc(O)ccc2n1-c1ccc(F)c(Cl)c1` [Compound 75], the EC50 in assay [1] was 500 to 2000 nM. Further, the IC50 in assay [2] is greater than 5000 nM.
Taken in the same sequence, the figures for `CC(C)c1c([C@H]2C[C@@](C)(C(=O)O)C2)c2cc(O)ccc2n1-c1ccc(F)c(Cl)c1` [Compound 76] were greater than 2000 nM and greater than 30000 nM.
Taken in the same sequence, the figures for `CC(C)c1c([C@H]2C[C@H](C(=O)O)C2)c2cc(O)ccc2n1-c1ccc(F)c(Cl)c1` [Compound 77] were 500 to 2000 nM and greater than 5000 nM.
Taken in the same sequence, the figures for `CC(C)c1c([C@H]2C[C@@H](C(=O)O)C2)c2cc(O)ccc2n1-c1ccc(F)c(Cl)c1` [Compound 78] were greater than 2000 nM and greater than 5000 nM.
Turning to `CC(C)c1c(C2CC3(CC(C(=O)O)C3)C2)c2cc(O)ccc2n1-c1ccc(F)cc1` (centres unmarked) [Compound 80], the EC50 in assay [1] is 500 to 2000 nM. Also, the IC50 in assay [2] is less than 2000 nM.
Taken in the same sequence, the figures for `COCC(C)(C)c1c(CC2(C(=O)O)CC2)c2cc(O)ccc2n1-c1ccc(F)c(C)c1` [Compound 81] were 500 to 2000 nM and greater than 30000 nM.
Taken in the same sequence, the figures for `Cc1cc(-n2c([C@@H]3CCOC3)c([C@H]3C[C@H](C(=O)O)C3)c3cc(O)ccc32)ccc1F` [Compound 84] were greater than 2000 nM and greater than 30000 nM.
Take `Cc1cc(-n2c([C@@H]3CCOC3)c([C@H]3C[C@@H](C(=O)O)C3)c3cc(O)ccc32)ccc1F` [Compound 85]: in assay [1], the EC50 is greater than 2000 nM. Besides, the IC50 in assay [2] is greater than 30000 nM.
Turning to `Cc1cc(-n2c([C@H]3CCOC3)c([C@H]3C[C@H](C(=O)O)C3)c3cc(O)ccc32)ccc1F` [Compound 86], in assay [1], the EC50 was greater than 2000 nM. Also, in assay [2], the IC50 was greater than 30000 nM.
Taken in the same sequence, the figures for `Cc1cc(-n2c([C@H]3CCOC3)c([C@H]3C[C@@H](C(=O)O)C3)c3cc(O)ccc32)ccc1F` [Compound 87] were greater than 2000 nM and greater than 30000 nM.
In the same order, the values of `Cc1cc(-n2c(C(C)C)c(C3COC(C(=O)O)C3)c3cc(O)ccc32)ccc1F` (centres unmarked) [Compound 88] are greater than 2000 nM and greater than 30000 nM.
Taken in the same sequence, the figures for `Cc1cc(-n2c(C(C)C)c([C@H]3C[C@H](C(=O)O)C3)c3c(F)c(O)ccc32)ccc1F` [Compound 89] were 500 to 2000 nM and 2000 to 5000 nM.
Turning to `Cc1cc(-n2c(C(C)C)c([C@H]3C[C@@H](C(=O)O)C3)c3c(F)c(O)ccc32)ccc1F` [Compound 90], the EC50 in assay [1] fell in the range of 500 to 2000 nM. In addition, the IC50 in assay [2] was greater than 5000 nM.
In the same order, the values of `CC(C)c1c([C@H]2C[C@@H](C(=O)O)C2)c2cc(O)ccc2n1-c1ccc(F)cc1` [Compound 91] are greater than 2000 nM and greater than 30000 nM.
Turning to `CC(C)c1c(C(C)CCC(=O)O)c2cc(O)ccc2n1-c1ccc(F)cc1` (centres unmarked) [Compound 92], in assay [1], the EC50 is greater than 2000 nM. Besides, in assay [2], the IC50 is greater than 5000 nM.
As for `Cc1cc(-n2c(C3CC3)c([C@H]3C[C@H](C(=O)O)C3)c3cc(O)ccc32)ccc1F` [Compound 93], in assay [1], the 50% effective concentration (EC50) is greater than 2000 nM. The IC50 in assay [2] is greater than 30000 nM.
In the same order, the values of `Cc1cc(-n2c(C(C)C)c([C@H]3C[C@@](C)(C(=O)O)C3)c3cc(O)ccc32)ccc1F` [Compound 94] are greater than 2000 nM and greater than 30000 nM.
For `Cc1cc(-n2c(C(C)C)c([C@H]3C[C@](C)(C(=O)O)C3)c3cc(O)ccc32)ccc1F` [Compound 95], the EC50 in assay [1] is less than 500 nM. Moreover, in assay [2], the IC50 is greater than 5000 nM.
Take `Cc1cc(-n2c(C(C)C)c(CCCC(=O)O)c3cc(O)ccc32)ccc1F` [Compound 96]: the EC50 in assay [1] is 500 to 2000 nM. Moreover, the IC50 in assay [2] is greater than 30000 nM.
With `Cc1cc(-n2c(C(C)C)c(C3CC4(CC(C(=O)O)C4)C3)c3cc(O)ccc32)ccc1F` (centres unmarked) [Compound 97], the EC50 in assay [1] was less than 500 nM. Also, the IC50 in assay [2] is 2000 to 5000 nM.
Taken in the same sequence, the figures for `Cc1cc(-n2c(C(C)C)c([C@H]3C[C@@H](C(=O)O)C3)c3cc(O)ccc32)ccc1F` [Compound 98] were greater than 2000 nM and greater than 30000 nM.
Taken in the same sequence, the figures for `Cc1cc(-n2c(C3CCOCC3)c([C@H]3C[C@](C)(C(=O)O)C3)c3cc(O)ccc32)ccc1F` [Compound 99] were 500 to 2000 nM and greater than 5000 nM.
In the case of `Cc1cc(-n2c(C3CCOCC3)c([C@H]3C[C@@](C)(C(=O)O)C3)c3cc(O)ccc32)ccc1F` [Compound 100], in assay [1], the concentration for a half-maximal effect (EC50) is greater than 2000 nM. Besides, the 50% inhibitory concentration (IC50) in assay [2] was greater than 30000 nM.
With `Cc1cc(-n2c(C3CCOCC3)c(CC3(C(=O)O)CC3)c3cc(O)ccc32)ccc1F` [Compound 103], in assay [1], the EC50 was greater than 2000 nM. Further, the concentration for half-maximal inhibition (IC50) in assay [2] was greater than 30000 nM.
Taken in the same sequence, the figures for `Cc1cc(-n2c(C(C)C)c(CC3(C(=O)O)CC3)c3cc(O)ccc32)ccc1F` [Compound 104] were 500 to 2000 nM and greater than 5000 nM.
Taken in the same sequence, the figures for `COC[C@]1(C(=O)O)C[C@H](c2c(C3CCOCC3)n(-c3ccc(F)c(C)c3)c3ccc(O)cc32)C1` [Compound 106, trans-3-(1-(4-fluoro-3-methylphenyl)-5-hydroxy-2-(tetrahydro-2H-pyran-4-yl)-1H-indol-3-yl)-1-(methoxymethyl)cyclobutane-1-carboxylic acid] were greater than 2000 nM and greater than 30000 nM.
Taken in the same sequence, the figures for `COC[C@]1(C(=O)O)C[C@@H](c2c(C3CCOCC3)n(-c3ccc(F)c(C)c3)c3ccc(O)cc32)C1` [Compound 107, cis-3-(1-(4-fluoro-3-methylphenyl)-5-hydroxy-2-(tetrahydro-2H-pyran-4-yl)-1H-indol-3-yl)-1-(methoxymethyl)cyclobutane-1-carboxylic acid] were greater than 2000 nM and greater than 30000 nM.
`Cc1cc(-n2c(C3CCOCC3)c([C@H]3C[C@](CF)(C(=O)O)C3)c3cc(O)ccc32)ccc1F` [Compound 108]: the EC50 in assay [1] is 500 to 2000 nM. Besides, in assay [2], the IC50 is greater than 5000 nM.

For the origin of these results see US20230339915A1 (Vertex Pharmaceuticals Incorporated, priority 2020, published 2023).
